Test results: the NIST ThermoML archive (doi:10.1021/je8004134)

Experiment: an = ratio of the nth substance listed, in mol/kg
Conditions: 298.15 K, 101 kPa, Liquid; for speed of sound: Sing-around technique in a fixed-path interferometer; for mass density: Vibrating tube method

CC(=O)N(C)C [N,N-dimethylethanamide] + [Co+2].[O-][Cl+3]([O-])([O-])[O-].[O-][Cl+3]([O-])([O-])[O-]
a2 = 0
Conditions	mass density [kg/m3]	speed of sound [m/s]
–	936.233	1455.4

[Cu+2].[O-][Cl+3]([O-])([O-])[O-].[O-][Cl+3]([O-])([O-])[O-] [copper perchlorate] + CC(=O)N(C)C
Conditions	mass density [kg/m3]	speed of sound [m/s]
a1 = 0.06523	950.245	1463.1
a1 = 0.09641	957.338	1466.4
a1 = 0.1434	968.019	1471.3
a1 = 0.1894	978.49	1476.5
a1 = 0.2336	988.543	1481.5
a1 = 0.2774	998.499	1486.9
a1 = 0.3204	1008.3	1492.2
a1 = 0.364	1018.21	1498.1

C[S+](C)[O-] [dimethyl sulfoxide] + [Co+2].[O-][Cl+3]([O-])([O-])[O-].[O-][Cl+3]([O-])([O-])[O-]
a2 = 0
Conditions	mass density [kg/m3]	speed of sound [m/s]
–	1095.19	1484.1

[Ni+2].[O-][Cl+3]([O-])([O-])[O-].[O-][Cl+3]([O-])([O-])[O-] [nickel perchlorate] + C[S+](C)[O-]
Conditions	mass density [kg/m3]	speed of sound [m/s]
a1 = 0.01259	1097.89	1485
a1 = 0.02515	1100.6	1485.8
a1 = 0.03816	1103.4	1486.7
a1 = 0.051	1106.18	1487.5
a1 = 0.06341	1108.88	1488.4
a1 = 0.07675	1111.79	1489.2
a1 = 0.08797	1114.24	1490
a1 = 0.1004	1116.98	1491
a1 = 0.1125	1119.67	1491.7
a1 = 0.1251	1122.43	1492.6

CC(=O)N(C)C [N,N-dimethylethanamide] + [Mn+2].[O-][Cl+3]([O-])([O-])[O-].[O-][Cl+3]([O-])([O-])[O-]
a2 = 0
Conditions	mass density [kg/m3]	speed of sound [m/s]
–	936.213	1455.4

[Cl][Mn][Cl] [manganese chloride] + CC(=O)N(C)C
Conditions	mass density [kg/m3]	speed of sound [m/s]
a1 = 0.05753	942.406	1458.5
a1 = 0.1146	948.611	1461.2
a1 = 0.1691	954.924	1463.8
a1 = 0.222	961.136	1466.5
a1 = 0.2756	967.302	1469.4
a1 = 0.3266	973.327	1472.2
a1 = 0.3813	979.1	1475.5
a1 = 0.433	984.866	1478.6

CC(=O)N(C)C [N,N-dimethylethanamide] + [Cl][Mn][Cl]
a2 = 0
Conditions	mass density [kg/m3]	speed of sound [m/s]
–	936.233	1455.4

C[S+](C)[O-] [dimethyl sulfoxide] + [Cl][Ni][Cl]
a2 = 0
Conditions	mass density [kg/m3]	speed of sound [m/s]
–	1095.19	1484.1

[O-][Cl+3]([O-])([O-])[O-].[O-][Cl+3]([O-])([O-])[O-].[Zn+2] [zinc perchlorate] + C[S+](C)[O-]
Conditions	mass density [kg/m3]	speed of sound [m/s]
a1 = 0.02918	1101.58	1485.7
a1 = 0.03465	1102.78	1486
a1 = 0.05104	1106.39	1486.9
a1 = 0.06794	1110.13	1487.8
a1 = 0.08574	1114.1	1488.8
a1 = 0.1022	1117.8	1489.7
a1 = 0.119	1121.58	1490.7
a1 = 0.1435	1127.14	1492.2
a1 = 0.1685	1132.85	1493.7

[Co+2].[O-][Cl+3]([O-])([O-])[O-].[O-][Cl+3]([O-])([O-])[O-] [cobalt(II) perchlorate] + C[S+](C)[O-]
Conditions	mass density [kg/m3]	speed of sound [m/s]
a1 = 0.0215	1099.78	1485.5
a1 = 0.03236	1102.1	1486.2
a1 = 0.04309	1104.4	1486.9
a1 = 0.05528	1107.03	1487.7
a1 = 0.06505	1109.14	1488.3
a1 = 0.08726	1113.97	1489.8
a1 = 0.1069	1118.27	1491
a1 = 0.1285	1123.03	1492.5
a1 = 0.148	1127.38	1493.7
a1 = 0.1695	1132.18	1495.2
a1 = 0.1911	1137.05	1496.6

[Co+2].[O-][Cl+3]([O-])([O-])[O-].[O-][Cl+3]([O-])([O-])[O-] [cobalt(II) perchlorate] + CC(=O)N(C)C
Conditions	mass density [kg/m3]	speed of sound [m/s]
a1 = 0.029	942.693	1459.3
a1 = 0.04235	945.675	1461
a1 = 0.05501	948.505	1462.7
a1 = 0.08591	955.413	1466.7
a1 = 0.1144	961.778	1470.4
a1 = 0.1415	967.838	1474
a1 = 0.1692	974.036	1477.8
a1 = 0.1973	980.3	1481.6
a1 = 0.2214	985.701	1484.9

C[S+](C)[O-] [dimethyl sulfoxide] + [O-][Cl+3]([O-])([O-])[O-].[O-][Cl+3]([O-])([O-])[O-].[Zn+2]
a2 = 0
Conditions	mass density [kg/m3]	speed of sound [m/s]
–	1095.2	1484.1

[Cl][Mn][Cl] [manganese chloride] + C[S+](C)[O-]
Conditions	mass density [kg/m3]	speed of sound [m/s]
a1 = 0.04414	1100.11	1486.7
a1 = 0.0572	1101.48	1487.5
a1 = 0.06981	1102.79	1488.2
a1 = 0.08942	1104.86	1489.2
a1 = 0.1135	1107.39	1490.3
a1 = 0.1386	1110.03	1491.4
a1 = 0.1616	1112.45	1492.1
a1 = 0.19	1115.49	1493.2
a1 = 0.213	1117.93	1494.1

CC(=O)N(C)C [N,N-dimethylethanamide] + [Cl][Co][Cl]
a2 = 0
Conditions	mass density [kg/m3]	speed of sound [m/s]
–	936.417	1455.4

CC(=O)N(C)C [N,N-dimethylethanamide] + [Cl][Cu][Cl]
a2 = 0
Conditions	mass density [kg/m3]	speed of sound [m/s]
–	936.304	1455.4
